Measured values reported in patent US7811797B2, “α-isomaltosylglucosaccharide-forming enzyme, process and uses of the same” (Kabushiki Kaisha Hayashibara Seibutsu Kagaku Kenkyujo, priority 2000, dated 2010).

Assays:
Inclusion action = format: physicochemical
Method: To 100 g of the aqueous solution was added 2 g of methanol, 3 g of ethanol, or 4.6 g acetic acid to be included by the cyclotetrasaccharide. Thereafter, each of the resulting solutions was filtered to remove non-included products, and the filtrate was dried in vacuo. As a control, similar inclusion products were prepared by using “ISOELITE™ P”, a branched cyclodextrin commercialized by Maruha K.K., Tokyo, Japan, which were known to have inclusion ability.
To measure the amount of the inclusion products in the resulting lyophilized powders, one gram of each powder was dissolved in five milliliters water and extracted after admixing with five milliliters of diethylether. The extraction was repeated, and the resulting extracts were quantified on gas chromatography.

[1] = system: Bifidobacterium adolescentis JCM 1275; test: Assimilation test, Bifidobacterium adolescentis; format: cell-based; details: PYF medium with 0.5% saccharide, 37° C., four days, anaerobic
Salivary amylase = biological target: T1, Salivary amylase (Homo sapiens, UniProt P0DUB6)
T1 sequence (P0DUB6 16-511): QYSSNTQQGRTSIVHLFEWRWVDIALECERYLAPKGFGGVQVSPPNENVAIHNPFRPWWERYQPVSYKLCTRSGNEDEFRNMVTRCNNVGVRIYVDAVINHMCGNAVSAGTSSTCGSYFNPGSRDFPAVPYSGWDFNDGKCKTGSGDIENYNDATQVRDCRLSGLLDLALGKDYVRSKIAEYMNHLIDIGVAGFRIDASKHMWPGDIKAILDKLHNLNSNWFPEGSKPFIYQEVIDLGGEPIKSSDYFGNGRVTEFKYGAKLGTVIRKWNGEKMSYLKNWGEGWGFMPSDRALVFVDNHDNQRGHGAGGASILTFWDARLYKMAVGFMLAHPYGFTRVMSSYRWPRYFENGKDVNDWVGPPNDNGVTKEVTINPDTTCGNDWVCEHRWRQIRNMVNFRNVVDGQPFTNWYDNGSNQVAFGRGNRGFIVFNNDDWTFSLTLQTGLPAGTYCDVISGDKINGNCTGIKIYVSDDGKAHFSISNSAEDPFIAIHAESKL

[2] = system: α-isomaltosylglucosaccharide-forming enzyme; test: Action on saccharides (substrates), Enzyme of Strain N75; format: biochemical, Bacillus globisporus N75; design: key: −: it showed no change; +: it showed a slight reduction of the color spot of the substrate and the formation of other reaction product; ++: it showed a high reduction of the color spot of the substrate and the formation of other reaction product; +++: it showed a substantial disappearance of the substrate spot and the formation of other reaction product; details: two units/g substrate, substrate 2% (w/v), 30° C., pH 6.0, 24 hours, TLC
Procedure, shortened: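 Purified enzyme from each strain was added at 2 units/g substrate to each of 24 saccharides at 2% (w/v). Incubation ran 24 h at 30° C, pH 6.0, or pH 8.4 for the A19 enzyme. TLC compared reaction mixtures before and after incubation to show whether each substrate was acted on.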

[3] = system: α-isomaltosylglucosaccharide-forming enzyme; test: Transfer-acceptor specificity, Enzyme of Strain A19; format: biochemical, Arthrobacter globiformis A19; details: acceptor 1.6%, PINE-DEX #100 donor 4%, one unit/g donor, 30° C., pH 8.4, 24 hours
Procedure, shortened: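 Each candidate acceptor at 1.6% was combined with 4% partial starch hydrolysate donor and 1 unit/g donor (d.s.b.) of purified enzyme. Incubation ran 24 h at 30 °C, pH 6.0 for the C9, C11 and N75 enzymes and pH 8.4 for A19. Transfer products were detected by GLC for mono- and disaccharide acceptors and HPLC for trisaccharide acceptors.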

[4] = Digestion test in vitro, synthetic gastric juice

For `OCC1OC2OCC3O[C@H](O[C@H]4C(O)C(CO)OC(OCC5O[C@H](O[C@@H](C1O)C2O)C(O)C(O)[C@@H]5O)C4O)C(O)C(O)[C@@H]3O` (stereo partly drawn) [Cyclotetrasaccharide, cyclo{→6)-α-D-glucopyranosyl-(1→3)-α-D-glucopyranosyl-(1→6)-α-D-glucopyranosyl-(1→3)-α-D-glucopyransoyl-(1→}], the “inclusion ability relative to that of the branched cyclodextrin” value (Inclusion action; by weight) was “about 2 folds”, the “Inclusion amount (mg/g lyophilized powder)” value (“Inclusion amount” for short) (Inclusion action; inclusion product Acetic acid) was 67.74 mg/g lyophilized powder and the “Inclusion amount” value (Inclusion action; inclusion product Ethanol) was 17.26 mg/g lyophilized powder. The “Inclusion amount” value (Inclusion action; inclusion product Methanol) was 6.71 mg/g lyophilized powder, the Assimilability [1] was “− (judged negative (−) when the post culture had a pH of 6.0 or higher)” and the “Decomposition percentage (%) by digestive enzyme” value (Salivary amylase) was 0.0%.

In the case of `OC[C@@H](O)[C@@H](O[C@H]1O[C@H](CO)[C@@H](O)[C@H](O)[C@H]1O)[C@H](O)[C@@H](O)CO` [Maltitol, reference compound], the “Enzymatic action, Enzyme of Strain N75” value [2] is reported as “−”, the “Product of transferring reaction, Enzyme of Stain A19” value [3] is reported as “++ (a saccharide-transferred product was detected in an amount over ten percent through transfer reaction to acceptor)” and the “Decomposition percentage (%) by digestive enzyme” value [4] is reported as 0.0%.
